# Source: US20050239656A1, “Pyridine compounds or salts thereof and herbicides containing the same” (priority 2002, published 2005)
# Key:
# rice [1] = experiment: Test Example 2: soil surface treatment, upland pot test; assay type: in vivo, Oryza sativa L.; conditions: observed 20th to 28th day
# In short: (§1)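 Pre-emergence: the soil surface was sprayed 1 day after sowing with wettable powder or emulsifiable concentrate diluted in water at 1,500 L/ha, at a predetermined active ingredient amount. Growth control was scored visually 20–28 days after treatment, 0 (untreated) to 100 (complete kill).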
# crabgrass [2] = experiment: as above; assay type: in vivo, Digitaria sanguinalis L.; conditions: observed 20th to 28th day
# In short: as §1
# crabgrass [3] = experiment: Test Example 1: foliage treatment, upland pot test; assay type: in vivo, Digitaria sanguinalis L.; conditions: active ingredient 500 g/ha, observed 18th to 23rd day, 0 = non-treated, 100 = complete kill
# soybean [4] = experiment: Test Example 2: soil surface treatment, upland pot test; assay type: in vivo, Glycine max Merr.; conditions: observed 20th to 28th day
# In short: as §1
# corn [5] = experiment: Test Example 1: foliage treatment, upland pot test; assay type: in vivo, Zea mays L.; conditions: crop, active ingredient 500 g/ha, observed 18th to 23rd day, 0 = non-treated, 100 = complete kill
# In short: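 Corn seeds were sown in upland field soil held in a 1/170,000 ha pot and grown to the 2.1 to 3.2 leaf stage. A wettable powder or emulsifiable concentrate of the test compound was diluted with water at 500 L/ha, given 0.1% (v/v) agricultural spreader, and sprayed onto the foliage with a small sprayer. Growth controlling degree (%) was scored visually 18th to 23rd days later, from 0 (non-treated) to 100 (complete kill).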
# wheat [6] = experiment: Test Example 2: soil surface treatment, upland pot test; assay type: in vivo, Triticum spp.; conditions: observed 20th to 28th day
# In short: as §1
# velvetleaf [7] = experiment: as above; assay type: in vivo, Abutilon theophrasti MEDIC.; conditions: observed 20th to 28th day
# In short: as §1
# barnyardgrass [8] = experiment: Test Example 1: foliage treatment, upland pot test; assay type: in vivo, Echinochloa crus-galli L.; conditions: active ingredient 500 g/ha, observed 18th to 23rd day, 0 = non-treated, 100 = complete kill
# In short: (§2)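 Upland pot test, foliar. Soybean 0.1–0.4 / wheat 1.3–2.4 / rice 1.2–2.6 / barnyardgrass 1.3–2.8 leaf stage at spraying; 500 L/ha carrier, 0.1% (v/v) spreader. Visual % control, 0 untreated to 100 dead, days 18–23.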
# soybean [9] = experiment: Test Example 1: foliage treatment, upland pot test; assay type: in vivo, Glycine max Merr.; conditions: crop, active ingredient 500 g/ha, observed 18th to 23rd day, 0 = non-treated, 100 = complete kill
# In short: as §2
# prickly sida [10] = experiment: Test Example 1: foliage treatment, upland pot test; assay type: in vivo, Sida spinosa L.; conditions: active ingredient 500 g/ha, observed 18th to 23rd day, 0 = non-treated, 100 = complete kill
# redroot pigweed [11] = experiment: Test Example 1: foliage treatment, upland pot test; assay type: in vivo, Amaranthus retroflexus L.; conditions: active ingredient 500 g/ha, observed 18th to 23rd day, 0 = non-treated, 100 = complete kill
# japanese bulrush = experiment: Test Example 3: paddy pot test, application under submerged conditions; assay type: in vivo, Scirpus juncoides; conditions: submerged application at 0.5 leaf stage, visually observed 14 days after application, 0 = non-treated, 100 = complete kill
# In short: (§3)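 Barnyardgrass and japanese bulrush sown in flooded paddy soil in greenhouse pots, japanese ribbon wapato tubers planted 1–2 days later; water depth kept at 3–4 cm. Diluted wettable powder or emulsifiable concentrate applied into water at 0.5-leaf or primary-leaf stage at set active-ingredient doses. Growth control scored visually at 14 days, 0 (untreated) to 100% (complete kill).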
# barnyardgrass [12] = experiment: Test Example 2: soil surface treatment, upland pot test; assay type: in vivo, Echinochloa crus-galli L.; conditions: observed 20th to 28th day
# In short: as §1
# rice [13] = experiment: Test Example 1: foliage treatment, upland pot test; assay type: in vivo, Oryza sativa L.; conditions: crop, active ingredient 500 g/ha, observed 18th to 23rd day, 0 = non-treated, 100 = complete kill
# In short: as §2
# redroot pigweed [14] = experiment: Test Example 2: soil surface treatment, upland pot test; assay type: in vivo, Amaranthus retroflexus L.; conditions: observed 20th to 28th day
# In short: as §1
# velvetleaf [15] = experiment: Test Example 1: foliage treatment, upland pot test; assay type: in vivo, Abutilon theophrasti MEDIC.; conditions: active ingredient 500 g/ha, observed 18th to 23rd day, 0 = non-treated, 100 = complete kill
# barnyardgrass [16] = experiment: Test Example 3: paddy pot test, application under submerged conditions; assay type: in vivo, Echinochloa crus-galli L.; conditions: submerged application at 0.5 leaf stage, visually observed 14 days after application, 0 = non-treated, 100 = complete kill
# In short: as §3
# green foxtail [17] = experiment: Test Example 1: foliage treatment, upland pot test; assay type: in vivo, Setaria viridis L.; conditions: active ingredient 500 g/ha, observed 18th to 23rd day, 0 = non-treated, 100 = complete kill
# green foxtail [18] = experiment: Test Example 2: soil surface treatment, upland pot test; assay type: in vivo, Setaria viridis L.; conditions: observed 20th to 28th day
# In short: as §1
# prickly sida [19] = experiment: as above; assay type: in vivo, Sida spinosa L.; conditions: observed 20th to 28th day
# In short: as §1
# rice (var. Nihonbare) = experiment: Test Example 3: paddy pot test, transplanted rice; assay type: in vivo, Oryza sativa L.; conditions: applied 4th day after transplantation, visually observed 21st day after application, 0 = non-treated, 100 = complete kill
# In short: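 Rice (var. Nihonbare) at 2 leaf stage transplanted 3 cm deep into puddled paddy soil under 3–4 cm flooding; on day 4 after transplanting, diluted wettable powder or emulsifiable concentrate applied by pipette under submerged conditions at a set active-ingredient dose. Growth scored visually 21 days after application, 0 (untreated) to 100 (complete kill) %.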
# corn [20] = experiment: Test Example 2: soil surface treatment, upland pot test; assay type: in vivo, Zea mays L.; conditions: observed 20th to 28th day
# In short: as §1
# wheat [21] = experiment: Test Example 1: foliage treatment, upland pot test; assay type: in vivo, Triticum spp.; conditions: crop, active ingredient 500 g/ha, observed 18th to 23rd day, 0 = non-treated, 100 = complete kill
# In short: as §2
# japanese ribbon wapato = experiment: Test Example 3: paddy pot test, application under submerged conditions; assay type: in vivo, Sagittaria pygniaea; conditions: active ingredient 250 g/ha; submerged application at primary leaf stage; visually observed 14 days after application; 0 = non-treated, 100 = complete kill
# In short: as §3
Structure (SMILES),Growth controlling degree (%) Rice (rice [1]; active ingredient 500 g/ha),Growth controlling degree (%) Crabgrass (crabgrass [2]; active ingredient 500 g/ha),Growth controlling degree (%) Crabgrass (crabgrass [3]),Growth controlling degree (%) Soyabean (soybean [4]; active ingredient 500 g/ha),Growth controlling degree (%) Corn (corn [5]),Growth controlling degree (%) wheat (wheat [6]; active ingredient 500 g/ha),Growth controlling degree (%) Velvetleaf (velvetleaf [7]; active ingredient 500 g/ha),Growth controlling degree (%) Barnyardgrass (barnyardgrass [8]),Growth controlling degree (%) Soybean (soybean [9]),Growth controlling degree (%) Prickly sida (prickly sida [10]),Growth controlling degree (%) Redroot pigweed (redroot pigweed [11]),Growth controlling degree (%) Japanese bulrush (japanese bulrush; active ingredient 250 g/ha),Growth controlling degree (%) Barnyardgrass (barnyardgrass [12]; active ingredient 500 g/ha),Growth controlling degree (%) Rice (rice [13]),Growth controlling degree (%) Redroot pigweed (redroot pigweed [14]; active ingredient 500 g/ha),Growth controlling degree (%) Velvetleaf (velvetleaf [15]),Growth controlling degree (%) Barnyardgrass (barnyardgrass [16]; active ingredient 250 g/ha),Growth controlling degree (%) Green foxtail (green foxtail [17]),Growth controlling degree (%) Rice (rice (var. Nihonbare); active ingredient 250 g/ha),Growth controlling degree (%) wheat (wheat [21]),also measured
CC(C)C(c1cnccc1C(F)(F)F)N(C)C(=O)Cc1ccc(OC(F)F)cc1 (racemic) [I-128],40%,100%,95%,20%,70%,30%,60%,70%,80%,80%,60%,90%,100%,50%,30%,80%,100%,50%,0%,30%,Growth controlling degree (%) Green foxtail (green foxtail [18]; active ingredient 500 g/ha): 100%; Growth controlling degree (%) Prickly sida (prickly sida [19]; active ingredient 500 g/ha): 80%; Growth controlling degree (%) Corn (corn [20]; active ingredient 500 g/ha): 50%
Cc1ccc(S(=O)(=O)N(C)C(c2cnccc2C(F)(F)F)C(C)C)cc1 (racemic) [I-130],,,80%,,70%,,,70%,40%,80%,70%,,,40%,,70%,,60%,,10%,Growth controlling degree (%) Rice (rice [1]; active ingredient 250 g/ha): 40%; Growth controlling degree (%) Crabgrass (crabgrass [2]; active ingredient 250 g/ha): 98%; Growth controlling degree (%) Soyabean (soybean [4]; active ingredient 250 g/ha): 10%; Growth controlling degree (%) wheat (wheat [6]; active ingredient 250 g/ha): 20%; Growth controlling degree (%) Velvetleaf (velvetleaf [7]; active ingredient 250 g/ha): 10%; Growth controlling degree (%) Japanese bulrush (japanese bulrush; active ingredient 125 g/ha): 70%; Growth controlling degree (%) Barnyardgrass (barnyardgrass [12]; active ingredient 250 g/ha): 100%; Growth controlling degree (%) Redroot pigweed (redroot pigweed [14]; active ingredient 250 g/ha): 10%; Growth controlling degree (%) Barnyardgrass (barnyardgrass [16]; active ingredient 125 g/ha): 100%; Growth controlling degree (%) Green foxtail (green foxtail [18]; active ingredient 250 g/ha): 95%; Growth controlling degree (%) Prickly sida (prickly sida [19]; active ingredient 250 g/ha): 50%; Growth controlling degree (%) Rice (rice (var. Nihonbare); active ingredient 125 g/ha): 10%; Growth controlling degree (%) Corn (corn [20]; active ingredient 250 g/ha): 20%
CC(C)C(c1cnccc1C(F)(F)F)N(C)C(=O)CC1Cc2ccccc2C1 (stereo not shown) [I-191],20%,98%,70%,30%,60%,20%,10%,70%,50%,80%,70%,,100%,20%,50%,80%,,80%,,10%,Growth controlling degree (%) Japanese bulrush (japanese bulrush; active ingredient 500 g/ha): 90%; Growth controlling degree (%) Barnyardgrass (barnyardgrass [16]; active ingredient 500 g/ha): 100%; Growth controlling degree (%) Green foxtail (green foxtail [18]; active ingredient 500 g/ha): 100%; Growth controlling degree (%) Prickly sida (prickly sida [19]; active ingredient 500 g/ha): 10%; Growth controlling degree (%) Rice (rice (var. Nihonbare); active ingredient 500 g/ha): 20%; Growth controlling degree (%) Corn (corn [20]; active ingredient 500 g/ha): 40%
CC(C)CC(=O)N(C)C(c1cnccc1C(F)(F)F)C(C)C (stereo not shown) [I-193],,,90%,,80%,,,95%,80%,90%,80%,95%,,80%,,60%,100%,80%,30%,80%,Growth controlling degree (%) Rice (rice [1]; active ingredient 250 g/ha): 80%; Growth controlling degree (%) Crabgrass (crabgrass [2]; active ingredient 250 g/ha): 100%; Growth controlling degree (%) Soyabean (soybean [4]; active ingredient 250 g/ha): 10%; Growth controlling degree (%) wheat (wheat [6]; active ingredient 250 g/ha): 60%; Growth controlling degree (%) Velvetleaf (velvetleaf [7]; active ingredient 250 g/ha): 10%; Growth controlling degree (%) Barnyardgrass (barnyardgrass [12]; active ingredient 250 g/ha): 100%; Growth controlling degree (%) Redroot pigweed (redroot pigweed [14]; active ingredient 250 g/ha): 10%; Growth controlling degree (%) Green foxtail (green foxtail [18]; active ingredient 250 g/ha): 100%; Growth controlling degree (%) Prickly sida (prickly sida [19]; active ingredient 250 g/ha): 80%; Growth controlling degree (%) Corn (corn [20]; active ingredient 250 g/ha): 70%
CC(C)C(c1cnccc1C(F)(F)F)N(C)C(=O)CC(C)(C)C (stereo not shown) [I-194],,,80%,,20%,,,70%,40%,70%,50%,98%,,50%,,10%,98%,70%,30%,40%,Growth controlling degree (%) Rice (rice [1]; active ingredient 250 g/ha): 40%; Growth controlling degree (%) Crabgrass (crabgrass [2]; active ingredient 250 g/ha): 100%; Growth controlling degree (%) Soyabean (soybean [4]; active ingredient 250 g/ha): 10%; Growth controlling degree (%) wheat (wheat [6]; active ingredient 250 g/ha): 20%; Growth controlling degree (%) Velvetleaf (velvetleaf [7]; active ingredient 250 g/ha): 30%; Growth controlling degree (%) Barnyardgrass (barnyardgrass [12]; active ingredient 250 g/ha): 100%; Growth controlling degree (%) Redroot pigweed (redroot pigweed [14]; active ingredient 250 g/ha): 50%; Growth controlling degree (%) Green foxtail (green foxtail [18]; active ingredient 250 g/ha): 100%; Growth controlling degree (%) Prickly sida (prickly sida [19]; active ingredient 250 g/ha): 40%; Growth controlling degree (%) Japanese ribbon wapato (japanese ribbon wapato): 30%; Growth controlling degree (%) Corn (corn [20]; active ingredient 250 g/ha): 10%
CC(C)C(=O)N(C)C(c1cnccc1C(F)(F)F)C(C)C (stereo not shown) [I-198],98%,100%,80%,90%,70%,98%,70%,70%,60%,70%,70%,100%,100%,80%,80%,40%,100%,60%,60%,70%,Growth controlling degree (%) Green foxtail (green foxtail [18]; active ingredient 500 g/ha): 100%; Growth controlling degree (%) Prickly sida (prickly sida [19]; active ingredient 500 g/ha): 90%; Growth controlling degree (%) Corn (corn [20]; active ingredient 500 g/ha): 70%
